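96-well plates; 48 h exposure; 5 concentrations. Endpoints by linear interpolation between flanking doses. Not reached: highest tested concentration assigned. GI50 is the concentration that inhibits growth by half.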 Activity calls are given as the source filed them. No stated cut-off is given here; in the data, active = GI50 up to about 1.1 µM and inactive = higher.
What was measured:
Assay in all cases: growth of human tumour cells (NCI), 48 h
[1] = test system: NCI-H226
[2] = test system: SF-539
[3] = test system: OVCAR-4
[4] = test system: 786-0
[5] = test system: IGROV-1
[6] = test system: NCI-H23
[7] = test system: COLO 205
[8] = test system: SK-MEL-5
[9] = test system: Hs-578T
[10] = test system: TK-10
[11] = test system: HL-60
[12] = test system: ACHN
[13] = test system: OVCAR-5
[14] = test system: HOP-92
[15] = test system: U-251
[16] = test system: SK-MEL-2
[17] = test system: SNB-75
[18] = test system: SK-MEL-28
[19] = test system: A549
[20] = test system: SF-295
[21] = test system: RPMI-8226
[22] = test system: MOLT-4
[23] = test system: SW-620
[24] = test system: MDA-MB-231
[25] = test system: OVCAR-8
[26] = test system: LOX IMVI
[27] = test system: CAKI-1
[28] = test system: T47D
[29] = test system: UO-31
[30] = test system: SR
[31] = test system: M14
[32] = test system: MDA-N
[33] = test system: K562
[34] = test system: UACC-257
[35] = test system: HT-29
[36] = test system: UACC-62
[37] = test system: NCI-H522
[38] = test system: CCRF-CEM
[39] = test system: OVCAR-3
[40] = test system: DU-145
[41] = test system: KM12
[42] = test system: HOP-62
[43] = test system: HCT-116
[44] = test system: EKVX
[45] = test system: A498
[46] = test system: SK-OV-3
[47] = test system: PC-3
[48] = test system: BT-549
[49] = test system: NCI/ADR-RES
[50] = test system: SN12C
[51] = test system: NCI-H460
[52] = test system: MDA-MB-435
[53] = test system: SNB-19
[54] = test system: SF-268
[55] = test system: HCC 2998
[56] = test system: HCT-15
[57] = test system: MCF7
[58] = test system: RXF 393

O=C(c1ccccc1)c1ccc(-n2c3ccccc3c3ccc4c(c32)C(=O)C=CC4=O)cc1 was tested, and the GI50 [1] was 23.3 µM (inactive), the GI50 [2] was 10.4 µM (inactive) and the GI50 [3] was 16.3 µM (inactive). For the same compound, the GI50 [4] was 2.06 µM (inactive), the GI50 [5] was 16 µM (inactive) and the GI50 [6] was 12.8 µM (inactive). The GI50 [7] was 9.12 µM (inactive), the GI50 [8] was 18.7 µM (inactive) and the GI50 [9] was 23.4 µM (inactive). The GI50 [10] was 12.7 µM (inactive), the GI50 [11] was 2.8 µM (inactive) and the GI50 [12] was 4.38 µM (inactive). The GI50 [13] was 18.7 µM (inactive), the GI50 [14] was 3.48 µM (inactive) and the GI50 [15] was 14.7 µM (inactive). For the same compound, the GI50 [16] was 19.3 µM (inactive), the GI50 [17] was 22.7 µM (inactive) and the GI50 [18] was 8.83 µM (inactive). For the same compound, the GI50 [19] was 18.5 µM (inactive), the GI50 [20] was 15.7 µM (inactive) and the GI50 [21] was 6.17 µM (inactive). For the same compound, the GI50 [22] was 1.75 µM (inactive), the GI50 [23] was 3.88 µM (inactive) and the GI50 [24] was 8.24 µM (inactive). For the same compound, the GI50 [25] was 7.24 µM (inactive), the GI50 [26] was 3.41 µM (inactive) and the GI50 [27] was 2.07 µM (inactive). The GI50 [28] was 3.1 µM (inactive), the GI50 [29] was 2.74 µM (inactive) and the GI50 [30] was 3.15 µM (inactive). The GI50 [31] was 9.2 µM (inactive), the GI50 [32] was 16.5 µM (inactive) and the GI50 [33] was 3.4 µM (inactive). For the same compound, the GI50 [34] was 12.7 µM (inactive), the GI50 [35] was 2.82 µM (inactive) and the GI50 [36] was 13.1 µM (inactive). The GI50 [37] was 3.43 µM (inactive), the GI50 [38] was 1.11 µM (active) and the GI50 [39] was 7.59 µM (inactive). The GI50 [40] was 10.5 µM (inactive), the GI50 [41] was 17.5 µM (inactive) and the GI50 [42] was 16.4 µM (inactive). The GI50 [43] was 5.2 µM (inactive), the GI50 [44] was 11 µM (inactive) and the GI50 [45] was 12.2 µM (inactive). The GI50 [46] was 20.9 µM (inactive), the GI50 [47] was 11.7 µM (inactive) and the GI50 [48] was 20.3 µM (inactive). The GI50 [49] was 18.8 µM (inactive), the GI50 [50] was 9.08 µM (inactive) and the GI50 [51] was 18.5 µM (inactive). The GI50 [52] was 6.01 µM (inactive), the GI50 [53] was 20.9 µM (inactive) and the GI50 [54] was 10.7 µM (inactive). For the same compound, the GI50 [55] was 11.2 µM (inactive), the GI50 [56] was 11.3 µM and the GI50 [57] was 3.21 µM (inactive). The GI50 [58] was 5.24 µM (inactive).

Cc1ccc2nc3sc(=O)sc3nc2c1 [CHINOMETHIONAT] was tested, and the GI50 [1] was 14.3 µM (inactive), the GI50 [2] was 18.7 µM (inactive) and the GI50 [3] was 13.7 µM (inactive). The GI50 [4] was 15.5 µM (inactive), the GI50 [5] was 16.1 µM (inactive) and the GI50 [6] was 19.4 µM (inactive). The GI50 [7] was 13.9 µM (inactive), the GI50 [8] was 15.6 µM (inactive) and the GI50 [9] was 25 µM (inactive). The GI50 [10] was 16.4 µM (inactive), the GI50 [11] was 16.6 µM (inactive) and the GI50 [12] was 15.2 µM (inactive). The GI50 [13] was 16.7 µM (inactive), the GI50 [14] was 15.5 µM (inactive) and the GI50 [15] was 17.1 µM (inactive). For the same compound, the GI50 [16] was 14.4 µM (inactive), the GI50 [17] was 19.6 µM (inactive) and the GI50 [18] was 17.9 µM (inactive). The GI50 [19] was 16.1 µM (inactive), the GI50 [20] was 16.6 µM (inactive) and the GI50 [21] was 19.5 µM (inactive). The GI50 [22] was 15.2 µM (inactive), the GI50 [23] was 24.1 µM (inactive) and the GI50 [24] was 17.3 µM (inactive). For the same compound, the GI50 [25] was 15.3 µM (inactive), the GI50 [26] was 15 µM (inactive) and the GI50 [27] was 16.4 µM (inactive). For the same compound, the GI50 [28] was 83.6 µM (inactive), the GI50 [29] was 15.4 µM (inactive) and the GI50 [30] was 21.1 µM (inactive). For the same compound, the GI50 [31] was 16.9 µM (inactive), the GI50 [32] was 17.4 µM (inactive) and the GI50 [33] was 26.2 µM (inactive). For the same compound, the GI50 [34] was 16.9 µM (inactive), the GI50 [35] was 17.1 µM (inactive) and the GI50 [36] was 17.9 µM (inactive). The GI50 [37] was 17.5 µM (inactive), the GI50 [38] was 31.5 µM (inactive) and the GI50 [39] was 14.5 µM (inactive). For the same compound, the GI50 [40] was > 100 µM (inactive), the GI50 [41] was 15.6 µM (inactive) and the GI50 [42] was 16.6 µM (inactive). For the same compound, the GI50 [43] was 17.2 µM (inactive), the GI50 [44] was 14.2 µM (inactive) and the GI50 [45] was 7.48 µM (inactive). The GI50 [46] was 19.6 µM (inactive), the GI50 [47] was 14.3 µM (inactive) and the GI50 [48] was 15.3 µM (inactive). The GI50 [49] was 14.8 µM (inactive), the GI50 [50] was 15.5 µM (inactive) and the GI50 [51] was 12.9 µM (inactive). The GI50 [52] was 16.1 µM (inactive), the GI50 [53] was 18.2 µM (inactive) and the GI50 [54] was 16.4 µM (inactive). The GI50 [55] was 16.2 µM (inactive), the GI50 [56] was 15.3 µM and the GI50 [57] was 17.6 µM (inactive). For the same compound, the GI50 [58] was 18.1 µM (inactive).

From ChEMBL document CHEMBL1201862, “PubChem BioAssay data set” (2004)
